The test deals with Rhythmic Bladder Contraction of Rats. Briefly: Effect on rhythmic bladder contraction of rats (urethane-anesthetized, saline infusion into bladder, intravesical pressure). To be noted: anesthetized female SD rats. In kind it is in vivo. The procedure: Effect on Rhythmic Bladder Contraction of Rats
Female SD rats were anesthetized with an intraperitoneal injection of urethane (1.0 g/kg). A polyethylene tube was inserted from urethral opening to the bladder and the tube was fixed by ligating. Physiological saline was appropriately infused via the tube (rate of infusion: about 0.2 ml/min; maximum dose: about 1.5 ml/rat) to induce rhythmic contraction of bladder. The rhythmic contraction of bladder was monitored by measuring the intravesical pressure through the polyethylene tube inserted into the bladder. After confirming that stable rhythmic contraction occurred at least 10 times, each test compound was intravenously administered at a doseof 1 ml/kg. If the intravesical pressure became, within 10 minutes from the administration of the test compound, not more than 50% of the intravesical pressure at the time point immediately after the administration of the test compound, it was judged that […], and the time period until the intravesical pressure again became not less than 50% was defined as the rhythmic bladder contraction-inhibiting time. As the solvent for administration of the test compounds, 5% xylitol was used for test Compounds 1, 2, 3, 4, 5, 11, 12, 21, 23 and 24; physiological saline was used for test Compounds 6, 9, 10, 13, 14, 15, 16, 17, 18, 19, 20 and 22; 10% ethanol solution was used for test Compound 7; and 10% DMSO solution was used for test Compound 8. The solvents 5% xylitol solution, 10% ethanol solution and 10% DMSO solution, each of which is said to somewhat influence on the rhythmic bladder contraction-inhibiting time, were also tested at the dose of 1 ml/kg. […]

[1] abbreviates: 10 mg/kg intravenously, solvent physiological saline.
Where [2] appears, read: 1 mg/kg intravenously, solvent physiological saline.
Where [3] appears, read: 10 mg/kg intravenously, solvent 5% xylitol.
Setting [4] is: 3 mg/kg intravenously, solvent physiological saline.
Where [5] appears, read: 30 mg/kg intravenously, solvent 5% xylitol.

Structures can show the parent of a compound that is named as a salt.

For `CN1CC[C@]23c4c5ccc(O)c4O[C@H]2c2nc4c(Cl)cccc4cc2C[C@@]3(O)[C@H]1C5` [Compound 10, 17-methyl-6,7-dehydro-4,5α-epoxy-3,14β-dihydroxy-6,7,2',3'-(8'-chloroquinolino)morphinan methanesulfonic acid salt], the “Mean Rhythmic Bladder Contraction-inhibiting Time” value under setting [1] worked out at 7.4 min. Turning to `CC(=O)O[C@@]12Cc3cc4ccccc4nc3[C@@H]3Oc4c(O)ccc5c4[C@@]31CCN(C)[C@@H]2C5` [Compound 17, 17-methyl-6,7-dehydro-4,5α-epoxy-3-hydroxy-14β-acetoxy-6,7,2',3'-quinolinomorphinan tartaric acid salt], the “Mean Rhythmic Bladder Contraction-inhibiting Time” value under setting [2] is 7.4 min.

Regarding `CN1CC[C@]23c4c5cccc4O[C@H]2c2nc4ccccc4cc2C[C@@]3(O)[C@H]1C5` [Compound 20, 17-methyl-6,7-dehydro-4,5α-epoxy-14β-hydroxy-6,7,2',3'-quinolinomorphinan tartaric acid salt], under setting [2], the “Mean Rhythmic Bladder Contraction-inhibiting Time” value worked out at 11.1 min.

As to `CN1CC[C@]23c4c5ccc(O)c4O[C@H]2c2nc4ccccc4c(N)c2C[C@@]3(O)[C@H]1C5` [Compound 2, 17-methyl-6,7-dehydro-4,5α-epoxy-3,14β-dihydroxy-6,7,2',3'-(4'-aminoquinolino)morphinan methanesulfonic acid salt], the “Mean Rhythmic Bladder Contraction-inhibiting Time” value under setting [3] turned out to be 4.5 min.

Take `Cc1ccc2nc3c(cc2c1)C[C@@]1(O)[C@H]2Cc4ccc(O)c5c4[C@@]1(CCN2C)[C@H]3O5` [Compound 14, 17-methyl-6,7-dehydro-4,5α-epoxy-3,14β-dihydroxy-6,7,2',3'-(6'-methylquinolino)morphinan methanesulfonic acid salt]: the “Mean Rhythmic Bladder Contraction-inhibiting Time” value under setting [4] was determined as 12.3 min. For `CN1CC[C@]23c4c5ccc(O)c4O[C@H]2c2nc4ccc(Cl)cc4cc2C[C@@]3(O)[C@H]1C5` [Compound 11, 17-methyl-6,7-dehydro-4,5α-epoxy-3,14β-dihydroxy-6,7,2',3'-(6'-chloroquinolino)morphinan methanesulfonic acid salt], the “Mean Rhythmic Bladder Contraction-inhibiting Time” value under setting [3] is reported as 12.4 min. On the same count and under the same terms, with `Cc1c2c(nc3ccccc13)[C@@H]1Oc3c(O)ccc4c3[C@@]13CCN(C)[C@H](C4)[C@]3(O)C2` [Compound 4, 17-methyl-6,7-dehydro-4,5α-epoxy-3,14β-dihydroxy-6,7,2',3'-(4'-methylquinolino)morphinan methanesulfonic acid salt] the figure was 13.9 min. As for `CO[C@@]12Cc3cc4ccccc4nc3[C@@H]3Oc4c(O)ccc5c4[C@@]31CCN(C)[C@@H]2C5` [Compound 9, 17-methyl-6,7-dehydro-4,5 α-epoxy-3-hydroxy-14 β -methoxy-6,7,2',3'-quinolinomorphinan methanesulfonic acid salt], the “Mean Rhythmic Bladder Contraction-inhibiting Time” value under setting [2] is 7.3 min. Consider `O=C1Nc2c3c(nc4cccc1c24)[C@@H]1Oc2c(O)ccc4c2[C@@]12CCN(CC1CC1)[C@H](C4)[C@]2(O)C3` [Compound 1, 17-cyclopropylmethyl-6,7-dehydro-4,5α-epoxy-3,14β-dihydroxy-6,7,2',3'-[4',5'-[imino(oxomethano)]quinolino]morphinan hydrochloric acid salt], for which the “Mean Rhythmic Bladder Contraction-inhibiting Time” value under setting [5] is on record as 6.2 min. With `Cc1ccc(CCN2CC[C@]34c5c6ccc(O)c5O[C@H]3c3nc5ccccc5cc3C[C@@]4(O)[C@H]2C6)cc1` [Compound 23, 17-(4-methylphenyl)ethyl-6,7-dehydro-4,5α-epoxy-3,14β-dihydroxy-6,7,2',3'-quinolinomorphinan methanesulfonic acid salt], the “Mean Rhythmic Bladder Contraction-inhibiting Time” value under setting [3] amounted to 9.2 min. As to `CN1CC[C@]23c4c5ccc(O)c4O[C@H]2c2nc4ccccc4c(O)c2C[C@@]3(O)[C@H]1C5` [Compound 5, 17-methyl-6,7-dehydro-4,5α-epoxy-3,14β-dihydroxy-6,7,2',3'-(4'-hydroxyquinolino)morphinan methanesulfonic acid salt], under setting [5], the “Mean Rhythmic Bladder Contraction-inhibiting Time” value is reported as 5.7 min. For `Oc1ccc2c3c1O[C@H]1c4nc5ccccc5cc4C[C@@]4(O)[C@@H](C2)N(CCc2ccc(F)cc2)CC[C@]314` [Compound 24, 17-(4-fluorophenyl)ethyl-6,7-dehydro-4,5α-epoxy-3,14β-dihydroxy-6,7,2',3'-quinolinomorphinan methanesulfonic acid salt], the “Mean Rhythmic Bladder Contraction-inhibiting Time” value under setting [3] turned out to be 2.3 min. With `Oc1ccc2c3c1O[C@H]1c4nc5c(cc4C[C@@]4(O)[C@@H](C2)N(CC2CC2)CC[C@]314)cc1c2c(cccc25)CC1` [Compound 3, 17-cyclopropylmethyl-6,7-dehydro-4,5α-epoxy-3,14β-dihydroxy-6,7,2',3'-(6',6"-ethano-7',8'-benzoquinolino)morphinan methanesulfonic acid salt], the “Mean Rhythmic Bladder Contraction-inhibiting Time” value (20 mg/kg intravenously, solvent 5% xylitol) was 5.0 min.

In the case of `Oc1ccc2c3c1O[C@H]1c4nc5ccccc5cc4C[C@@]4(O)[C@@H](C2)N(CCc2cccs2)CC[C@]314` [Compound 8, 17-(2-thienyl)ethyl-6,7-dehydro-4,5α-epoxy-3,14β-dihydroxy-6,7,2',3'-quinolinomorphinan methanesulfonic acid salt], the “Mean Rhythmic Bladder Contraction-inhibiting Time” value (10 mg/kg intravenously, solvent 10% DMSO solution) is given as 19.5 min. Turning to `CC(=O)Oc1ccc2c3c1O[C@H]1c4nc5ccccc5cc4C[C@@]4(O)[C@@H](C2)N(C)CC[C@]314` [Compound 18, 17-methyl-6,7-dehydro-4,5α-epoxy-3-acetoxy-14β-hydroxy-6,7,2',3'-quinolinomorphinane tartaric acid salt], under setting [2], the “Mean Rhythmic Bladder Contraction-inhibiting Time” value amounted to 6.6 min.

Consider `CN1CC[C@]23c4c5ccc(O)c4O[C@H]2c2nc4c(F)cccc4cc2C[C@@]3(O)[C@H]1C5` [Compound 15, 17-methyl-6,7-dehydro-4,5α-epoxy-3,14β-dihydroxy-6,7,2',3'-(8'-fluoroquinolino)morphinan tartaric acid salt], for which, under setting [2], the “Mean Rhythmic Bladder Contraction-inhibiting Time” value came out at 10.7 min.

In the case of `Cc1cccc2cc3c(nc12)[C@@H]1Oc2c(O)ccc4c2[C@@]12CCN(C)[C@H](C4)[C@]2(O)C3` [Compound 13, 17-methyl-6,7-dehydro-4,5α-epoxy-3,14β-dihydroxy-6,7,2',3'-(8'-methylquinolino)morphinan methanesulfonic acid salt], the “Mean Rhythmic Bladder Contraction-inhibiting Time” value under setting [2] was found to be 6.5 min. Turning to `CN1CC[C@]23c4c5ccc(O)c4O[C@H]2c2nc4cccc(Cl)c4cc2C[C@@]3(O)[C@H]1C5` [Compound 12, 17-methyl-6,7-dehydro-4,5α-epoxy-3,14β-dihydroxy-6,7,2',3'-(5'-chloroquinolino)morphinan tartaric acid salt], where the note is “0.3 mg/kg intravenously, solvent 5% xylitol”, the “Mean Rhythmic Bladder Contraction-inhibiting Time” value was 14.6 min. As to `Oc1ccc2c3c1O[C@H]1c4nc5ccccc5cc4C[C@@]4(O)[C@@H](C2)N(CCc2ccccc2)CC[C@]314` [Compound 7, 17-phenethyl-6,7-dehydro-4,5 α-epoxy-3,14β-dihydroxy-6,7,2',3'-quinolinomorphinan methanesulfonic acid salt], where the note is “5 mg/kg intravenously, solvent 10% ethanol solution”, the “Mean Rhythmic Bladder Contraction-inhibiting Time” value is 17.1 min.

Take `CC(=O)Oc1ccc2c3c1O[C@H]1c4nc5ccccc5cc4C[C@@]4(OC(C)=O)[C@@H](C2)N(C)CC[C@]314` [Compound 16, 17-methyl-6,7-dehydro-4,5α-epoxy-3,14β-diacetoxy-6,7,2',3'-quinolinomorphinan tartaric acid salt]: the “Mean Rhythmic Bladder Contraction-inhibiting Time” value (0.3 mg/kg intravenously, solvent physiological saline) came out at 15.0 min. For the compound `Oc1ccc2c3c1O[C@H]1c4nc5ccccc5cc4C[C@@]4(O)[C@@H](C2)N(CC2CC2)CC[C@]314` [Compound 21, 17-cyclopropylmethyl-6,7-dehydro-4,5α-epoxy-3,14β-dihydroxy-6,7,2',3'-quinolinomorphinan methanesulfonic acid salt], the “Mean Rhythmic Bladder Contraction-inhibiting Time” value under setting [3] turned out to be 10.0 min.

`CN1CC[C@]23c4c5ccc(O)c4O[C@H]2c2nc4ccccc4cc2C[C@@]3(O)[C@H]1C5` [Compound 6, 17-methyl-6,7-dehydro-4,5α-epoxy-3,14β-dihydroxy-6,7,2',3'-quinolinomorphinane methanesulfonic acid salt]: the “Mean Rhythmic Bladder Contraction-inhibiting Time” value under setting [4] was found to be 24.1 min. Turning to `C=CCN1CC[C@]23c4c5ccc(O)c4O[C@H]2c2nc4ccccc4cc2C[C@@]3(O)[C@H]1C5` [Compound 22, 17-allyl-6,7-dehydro-4,5α-epoxy-3,14β-dihydroxy-6,7,2',3'-quinolinomorphinan methanesulfonic acid salt], under setting [1], the “Mean Rhythmic Bladder Contraction-inhibiting Time” value is on record as 1.4 min. As for `COc1ccc2c3c1O[C@H]1c4nc5ccccc5cc4C[C@@]4(O)[C@@H](C2)N(C)CC[C@]314` [Compound 19, 17-methyl-6,7-dehydro-4,5α-epoxy-3-methoxy-14β-hydroxy-6,7,2',3'-quinolinomorphinan tartaric acid salt], the “Mean Rhythmic Bladder Contraction-inhibiting Time” value under setting [2] was determined as 7.7 min.

The values above are taken from patent EP1203771A1, “REMEDIES OR PREVENTIVES FOR FREQUENT URINATION OR URINARY INCONTINENCE” (TORAY INDUSTRIES, INC., priority 1999, dated 2001).
